{"source": "patent US20200262869A1", "about": "“PEPTIDE ANTIBIOTIC COMPLEXES AND METHODS OF USE THEREOF” (GENENTECH, INC., priority 2017, published 2020)", "key": {"A. baumannii 17978": {"test_system": "A. baumannii 17978", "assay": "Neutropenic thigh infection model in mice", "type": "in vivo", "conditions": "required a higher concentration of antibiotic; subcutaneous BID", "protocol": "(§1) CD1 mice (Charles River Laboratories) were rendered neutropenic by 2 intraperitoneal injections of Cytoxan (Baxter Health Care Corporation) at 150 mg/kg on Day -5 and 100 mg/kg on Day -2. On day 0, 50 ul log-phase grown bacteria, K. pneumoniae (ATCC 43816) 1×10^5 CFU/mouse, E. coli (ATCC 25922) 1×10^5 CFU/mouse, P. aeruginosa (ATCC 27853) 1×10^6 CFU/mouse, or A. baumannii (ATCC 17978) 1×10^5 CFU/mouse, were injected into the mouse thigh muscle. At 2 and 11 hours post infection, […] was given at indicated dose subcutaneously. At 20 hours post infection, CFU was determined in the thigh muscle through serial dilutions."}, "P. aeruginosa 27853": {"test_system": "P. aeruginosa 27853", "assay": "Neutropenic thigh infection model in mice", "type": "in vivo", "conditions": "required a higher concentration of antibiotic; subcutaneous BID", "protocol": "as §1"}, "[1]": {"test_system": "K. pneumoniae strain ATCC 43816", "assay": "Neutropenic thigh infection model in mice", "type": "in vivo", "conditions": "5 mg/kg subcutaneously BID at 2 and 11 h, 20 h post infection", "protocol": "as §1"}, "[2]": {"test_system": "E. coli strain ATCC 25922", "assay": "Neutropenic thigh infection model in mice", "type": "in vivo", "conditions": "1 mg/kg subcutaneously BID at 2 and 11 h, 20 h post infection", "protocol": "as §1"}, "K. pneumoniae ATCC 43816": {"test_system": "K. pneumoniae ATCC 43816", "assay": "MIC, broth microdilution", "type": "cell-based", "protocol": "(§2) Minimum Inhibitory Concentration (MIC). MICs were determined by performing two-fold serial dilutions of compound in Mueller Hinton II cation-adjusted broth to a final volume of 0.1 m1 in round-bottom 96-well assay plates (Corning Life Sciences No 3788). Each well was inoculated with 5×10^5 CFU/ml and incubated at 37° C. without agitation for 18 hours. Plates were scored by eye, and the lowest compound concentration preventing visible growth was determined to be the MIC."}, "E. cloacae ATCC 13407": {"test_system": "E. cloacae ATCC 13407", "assay": "MIC, broth microdilution", "type": "cell-based", "conditions": "Enterobacter cloacae, ATCC13407, read-out: MIC", "protocol": "as §2"}, "A. baumannii ATCC 17978": {"test_system": "A. baumannii ATCC 17978", "assay": "MIC, broth microdilution", "type": "cell-based", "conditions": "Acinetobacter baumannii, ATCC17978, read-out: MIC", "protocol": "as §2"}, "S. marcescens CDC4385-74": {"test_system": "S. marcescens CDC4385-74", "assay": "MIC, broth microdilution", "type": "cell-based", "conditions": "Serratia marcescens, CDC438574, read-out: MIC", "protocol": "as §2"}, "E. coli ATCC 25922": {"test_system": "E. coli ATCC 25922", "assay": "MIC, broth microdilution", "type": "cell-based", "protocol": "as §2"}, "C. werkmanii ATCC 51114": {"test_system": "C. werkmanii ATCC 51114", "assay": "MIC, broth microdilution", "type": "cell-based", "conditions": "Citrobacter werkmanii, ATCC51114, read-out: MIC", "protocol": "as §2"}, "P. aeruginosa ATCC 27853": {"test_system": "P. aeruginosa ATCC 27853", "assay": "MIC, broth microdilution", "type": "cell-based", "conditions": "Pseudomonas aeruginosa, ATCC27853, read-out: MIC", "protocol": "as §2"}, "E. aerogenes ATCC 13408": {"test_system": "E. aerogenes ATCC 13408", "assay": "MIC, broth microdilution", "type": "cell-based", "conditions": "Klebsiella aerogenes, ATCC13408, read-out: MIC", "protocol": "as §2"}, "[3]": {"test_system": "MDR K. pneumoniae CDC 0106", "assay": "MIC against MDR clinical isolate", "type": "cell-based", "conditions": "Klebsiella pneumoniae; MDR K. pneumoniae CDC 0106; read-out: MIC", "protocol": "as §2"}}}
{"compound": "Cc1nc(-c2ccc(C(C)(C)C)cc2)ncc1C(=O)NC(CCN)C(=O)N(C)C1C(=O)NC(C)C(=O)NC(C(=O)NCC#N)Cc2ccc(OCCN)c(c2)-c2cc1ccc2OCCN", "note": "(stereo not drawn) [G0775]", "values": [{"measurement": "efficacy in neutropenic thigh model", "setting": "A. baumannii 17978", "result": "efficacious"}, {"measurement": "efficacy in neutropenic thigh model", "setting": "P. aeruginosa 27853", "result": "efficacious"}, {"measurement": "decrease in CFU (bactericidal activity)", "setting": "[1]", "result": "> 2", "unit": "log"}, {"measurement": "decrease in CFU (bactericidal activity)", "setting": "[2]", "result": "> 2", "unit": "log"}, {"measurement": "potency relative to arylomycin A-C16", "setting": "K. pneumoniae ATCC 43816; K. pneumoniae, more potent than arylomycin A-C16", "result": "> 500", "unit": "fold"}, {"measurement": "MIC", "setting": "K. pneumoniae ATCC 43816; Klebsiella pneumoniae, ATCC43816, K. pneumoniae ATCC 43816, read-out: MIC", "result": 0.125, "unit": "µg/mL"}, {"measurement": "MIC", "setting": "E. cloacae ATCC 13407", "result": 0.25, "unit": "µg/mL"}, {"measurement": "MIC", "setting": "A. baumannii ATCC 17978", "result": 1, "unit": "µg/mL"}, {"measurement": "MIC", "setting": "S. marcescens CDC4385-74", "result": 0.125, "unit": "µg/mL"}, {"measurement": "potency relative to arylomycin A-C16", "setting": "E. coli ATCC 25922; E. coli, more potent than arylomycin A-C16", "result": "> 500", "unit": "fold"}, {"measurement": "MIC", "setting": "E. coli ATCC 25922; Escherichia coli, ATCC25922, E. coli ATCC 25922, read-out: MIC", "result": 0.125, "unit": "µg/mL"}, {"measurement": "MIC", "setting": "C. werkmanii ATCC 51114", "result": 0.125, "unit": "µg/mL"}, {"measurement": "MIC", "setting": "P. aeruginosa ATCC 27853", "result": 4, "unit": "µg/mL"}, {"measurement": "MIC", "setting": "E. aerogenes ATCC 13408", "result": 0.125, "unit": "µg/mL"}, {"measurement": "MIC", "setting": "[3]", "result": 0.5, "unit": "µg/mL"}]}
